Reference: patent US20090018134A1, “Compounds - 945” (AstraZeneca AB, priority 2007, published 2009)

Biological target: T1, mTOR (Homo sapiens, UniProt P42345)
T1 construct: FLAG; made in house
Test: In Vitro mTOR Kinase Assay (Echo), Test (a)(ii)
Format: biochemical
Conditions: not given
Summary of the method: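 FLAG-tagged human mTOR truncation (residues 1362-2549) expressed in HEK293 cells and FLAG-purified. Compounds dispensed acoustically, reaction 2 h at room temperature, stopped with EDTA. Phosphorylation of biotinylated peptide detected by AlphaScreen with anti-p70 S6K (T389) antibody overnight; IC50 reported.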

T1 sequence (P42345 1362-2549): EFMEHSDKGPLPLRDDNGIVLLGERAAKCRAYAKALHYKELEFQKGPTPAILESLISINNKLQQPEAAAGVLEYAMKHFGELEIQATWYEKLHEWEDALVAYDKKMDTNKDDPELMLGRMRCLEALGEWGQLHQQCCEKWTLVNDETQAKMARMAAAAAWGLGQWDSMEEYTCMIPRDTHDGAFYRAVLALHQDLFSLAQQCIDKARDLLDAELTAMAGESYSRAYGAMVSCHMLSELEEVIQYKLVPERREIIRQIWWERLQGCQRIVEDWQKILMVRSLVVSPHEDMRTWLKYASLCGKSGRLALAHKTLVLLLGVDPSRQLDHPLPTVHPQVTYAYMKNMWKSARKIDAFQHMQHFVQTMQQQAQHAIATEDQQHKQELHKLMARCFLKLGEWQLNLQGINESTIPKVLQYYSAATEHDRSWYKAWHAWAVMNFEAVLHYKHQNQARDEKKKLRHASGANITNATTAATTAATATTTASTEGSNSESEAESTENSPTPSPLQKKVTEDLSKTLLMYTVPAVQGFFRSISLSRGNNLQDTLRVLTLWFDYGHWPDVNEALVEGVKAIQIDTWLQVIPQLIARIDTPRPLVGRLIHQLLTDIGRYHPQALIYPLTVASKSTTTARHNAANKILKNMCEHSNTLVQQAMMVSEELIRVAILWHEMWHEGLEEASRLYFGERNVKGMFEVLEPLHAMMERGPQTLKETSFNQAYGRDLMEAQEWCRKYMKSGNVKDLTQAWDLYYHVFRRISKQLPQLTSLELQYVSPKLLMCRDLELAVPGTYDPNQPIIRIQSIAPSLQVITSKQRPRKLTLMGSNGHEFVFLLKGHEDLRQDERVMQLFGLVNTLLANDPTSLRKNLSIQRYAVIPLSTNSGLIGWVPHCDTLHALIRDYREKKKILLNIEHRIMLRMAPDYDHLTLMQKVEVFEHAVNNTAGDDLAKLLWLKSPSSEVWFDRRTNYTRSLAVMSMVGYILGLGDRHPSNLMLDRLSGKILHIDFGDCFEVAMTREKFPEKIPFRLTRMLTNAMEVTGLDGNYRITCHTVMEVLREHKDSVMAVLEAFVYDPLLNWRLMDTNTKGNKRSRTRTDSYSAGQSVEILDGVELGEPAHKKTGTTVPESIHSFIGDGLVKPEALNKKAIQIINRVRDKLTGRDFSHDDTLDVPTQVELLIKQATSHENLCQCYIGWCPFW

Structure (SMILES)	IC50 [nM]
C[C@H]1COCCN1c1cc(C2(S(=O)(=O)c3ccccc3)CC2)nc(-c2ccc(NC(=O)NCCCl)cc2)n1 [Example 36ee, 1-[4-[4-[1-(benzenesulfonyl)cyclopropyl]-6-[(3S)-3-methylmorpholin-4-yl]pyrimidin-2-yl]phenyl]-3-(2-chloroethyl)urea]	9.58

Same assay, conditions: read-out: mTOR Kinase Assay (Echo)

IC50 [nM]	Structure (SMILES)
1.45	COc1ccc(NC(=O)Nc2ccc(-c3nc(N4CCOC[C@@H]4C)cc(C4(S(C)(=O)=O)CC4)n3)cc2)cc1 [Example 2t, 3-(4-methoxyphenyl)-1-[4-[4-[(3S)-3-methylmorpholin-4-yl]-6-(1-methylsulfonylcyclopropyl)pyrimidin-2-yl]phenyl]urea]
110	C[C@H]1COCCN1c1cc(C2(S(=O)(=O)c3ccccc3C(F)(F)F)CC2)nc(-c2ccc(NC(=O)Nc3ccc(C(F)(F)F)cc3)cc2)n1 [Example 10j, 1-[4-[4-[(3S)-3-methylmorpholin-4-yl]-6-[1-[2-(trifluoromethyl)phenyl]sulfonylcyclopropyl]pyrimidin-2-yl]phenyl]-3-[4-(trifluoromethyl)phenyl]urea]
10	C[C@H]1COCCN1c1cc(C2(S(C)(=O)=O)CCCC2)nc(-c2ccc(NC(=O)NC(C)(C)CO)cc2)n1 [Example 4f, 3-(1-hydroxy-2-methyl-propan-2-yl)-1-[4-[4-[(3S)-3-methylmorpholin-4-yl]-6-(1-methylsulfonylcyclopentyl)pyrimidin-2-yl]phenyl]urea]

Same assay, conditions: table of enzyme assay Test (a)(ii); read-out: Test (a)(ii) IC50

IC50 [nM]	Structure (SMILES)
15.1	CC(C)NC(=O)Nc1ccc(-c2nc(N3CCOC[C@@H]3C)cc(C3(S(=O)(=O)C(C)(C)C)CC3)n2)cc1 [Example 18d, 1-[4-[4-(1-tert-butylsulfonylcyclopropyl)-6-[(3S)-3-methylmorpholin-4-yl]pyrimidin-2-yl]phenyl]-3-propan-2-ylurea]
12	O=C(Nc1ccc(-c2nc(N3CCOCC3)cc(C3(C(=O)NC4CC4)CC3)n2)cc1)NC1CC1 [Example 33b, N-cyclopropyl-1-[2-[4-(cyclopropylcarbamoylamino)phe-nyl]-6-morpholin-4-ylpyrimidin-4-yl]cyclopropane-1-carboxamide]
0.656	COc1ccc(NC(=O)Nc2ccc(-c3nc(N4CCOC[C@@H]4C)cc(C4(S(C)(=O)=O)CC4)n3)cc2)cc1 [Example 2t, 3-(4-methoxyphenyl)-1-[4-[4-[(3S)-3-methylmorpholin-4-yl]-6-(1-methylsulfonylcyclopropyl)pyrimidin-2-yl]phenyl]urea]
4.33	C[C@H]1COCCN1c1cc(C2(S(=O)(=O)c3ccccc3)CC2)nc(-c2ccc(NC(=O)NC(C)(C)CO)cc2)n1 [Example 36bk, 1-[4-[4-[1-(benzenesulfonyl)cyclopropyl]-6-[(3S)-3-methylmorpholin-4-yl]pyrimidin-2-yl]phenyl]-3-(1-hydroxy-2-methylpropan-2-yl)urea]
5.67	C[C@H]1COCCN1c1cc(C2(S(=O)(=O)c3ccc(Cl)cc3)CC2)nc(-c2ccc(NC(=O)Nc3ccon3)cc2)n1 [Example 64ai, 1-[4-[4-[1-(4-chlorophenyl)sulfonylcyclopropyl]-6-[(3S)-3-methylmorpholin-4-yl]pyrimidin-2-yl]phenyl]-3-(1,2-oxazol-3-yl)urea]
16.1	C[C@H]1COCCN1c1cc(C2(S(=O)(=O)C3CC3)CCC2)nc(-c2ccc(NC(=O)NC(C)(C)CO)cc2)n1 [Example 64w, 1-[4-[4-(1-cyclopropylsulfonylcyclobutyl)-6-[(3S)-3-methylmorpholin-4-yl]pyrimidin-2-yl]phenyl]-3-(1-hydroxy-2-methylpropan-2-yl)urea]
18.2	CCNC(=O)Nc1ccc(-c2nc(N3CCOCC3CO)cc(C3(S(=O)(=O)c4ccccc4)CC3)n2)cc1 (stereo not drawn) [Example 71, 1-[4-[4-[1-(Benzenesulfonyl)cyclopropyl]-6-[3-(hydroxymethyl)morpholin-4-yl]pyrimidin-2-yl]phenyl]-3-ethylurea]
23.4	C[C@H]1COCCN1c1cc(C2(S(=O)(=O)C3CC3)CCNCC2)nc(-c2ccc(NC(=O)Nc3cnn(C)c3)cc2)n1 [Example 21c, 1-[4-[4-(4-cyclopropylsulfonylpiperidin-4-yl)-6-[(3S)-3-methylmorpholin-4-yl]pyrimidin-2-yl]phenyl]-3-(1-methylpyrazol-4-yl)urea]
